One experiment deals with T1, androgen receptor (Mesocricetus auratus, UniProt A0A1U7QL32).
T1 construct: a sebaceous gland in flank organ was excised and homogenized; from tissue; host or cells: male Syrian hamster flank organ sebaceous gland, 16 hours after castration; supernatant of homogenate centrifuged at 30,000 rpm for 1 hour
T1 sequence (A0A1U7QL32 1-900): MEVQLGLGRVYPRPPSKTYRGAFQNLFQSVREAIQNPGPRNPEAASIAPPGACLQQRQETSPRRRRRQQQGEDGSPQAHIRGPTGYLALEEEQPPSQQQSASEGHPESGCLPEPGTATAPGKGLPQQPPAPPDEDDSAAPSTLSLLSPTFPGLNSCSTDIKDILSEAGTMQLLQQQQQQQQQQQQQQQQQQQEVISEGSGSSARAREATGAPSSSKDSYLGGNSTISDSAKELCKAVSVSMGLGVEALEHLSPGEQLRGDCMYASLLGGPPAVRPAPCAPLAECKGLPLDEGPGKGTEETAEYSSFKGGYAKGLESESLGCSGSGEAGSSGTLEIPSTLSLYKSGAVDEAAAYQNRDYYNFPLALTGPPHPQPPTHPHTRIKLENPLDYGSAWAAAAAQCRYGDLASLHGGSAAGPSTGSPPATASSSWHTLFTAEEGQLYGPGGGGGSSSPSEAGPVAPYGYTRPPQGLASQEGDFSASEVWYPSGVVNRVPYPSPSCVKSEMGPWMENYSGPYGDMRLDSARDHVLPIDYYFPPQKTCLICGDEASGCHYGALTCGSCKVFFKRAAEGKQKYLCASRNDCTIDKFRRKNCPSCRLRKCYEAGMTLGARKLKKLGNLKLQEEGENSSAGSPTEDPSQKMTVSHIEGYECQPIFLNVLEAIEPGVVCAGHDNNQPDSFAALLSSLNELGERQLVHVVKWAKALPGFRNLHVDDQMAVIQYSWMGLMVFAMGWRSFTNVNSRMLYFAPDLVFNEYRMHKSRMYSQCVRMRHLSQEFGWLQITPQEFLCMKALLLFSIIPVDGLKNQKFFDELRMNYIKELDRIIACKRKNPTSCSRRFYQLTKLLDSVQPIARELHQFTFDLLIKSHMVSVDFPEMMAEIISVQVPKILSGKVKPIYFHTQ
Briefly: Inhibition of [3H]R1881 binding with androgen receptor (Pharmacological Test Example 1; also Test Example 2). More on the design: species or system male Syrian hamster (sebaceous gland in flank organ). Particulars: chemically synthesized xanthones; calculated from inhibition rate; 1 nM [3H]R1881, 0° C., 16 hours; read-out: Concentration for 50% Inhibition. On the procedure:
(a) Preparation of androgen receptor
From a male Syrian hamster 16 hours after castration, a sebaceous gland in flank organ was excised and homogenized in 5-10 times (volume) of 50 mM-Tris-HCl buffer (pH 7.4) containing 1.5 mM-EDTA, 1 mM-DTT, 10 mM-Na2 MoO4, and 10% (w/v) glycerol. The homogenate was centrifuged at 3,000 rpm and 0°-4° C. for 10 minutes to obtain the supernatant, which was further centrifuged at 30,000 rpm and 0°-4° C. for 1 hour to obtain the supernatant to be employed as androgen receptor.
(b) Determination of inhibitory activity
Then the mixture was added with a suspension (500 μl) of 0.5% charcoal and 0.05% dextran T-70. After standing at 0° C. for 10 minutes, the mixture was centrifuged at 3,000 rpm for 10 minutes. The supernatent (300 μl) was mixed with a liquid scintillator to measure the radioactivity due to binding of [^3 H]R1881 with the androgen receptor in scintillation counter. The inhibition rate of each extract was calculated according to the following equation.
Inhibition (%)=[(c-s)/c]×100 […]
c: specific binding amount of [^3 H]R1881 with androgen receptor without addition of test sample; and s: specific binding amount of [^3 H]R1881 with androgen receptor with addition of the test sample.
For `O=c1c2c(O)cccc2oc2cc(O)cc(O)c12` [F], the IC50 was 20 µM.

As for `O=c1c2ccc(O)cc2oc2cc(O)cc(O)c12` [E], the IC50 was 4.1 µM.

As for `O=c1c2cccc(O)c2oc2cc(O)cc(O)c12` [D], the IC50 was 34 µM.

As for `O=c1c2c(O)cc(O)cc2oc2cc(O)cc(O)c12` [B], the IC50 was 5.1 µM.

As for `O=c1c2ccc(O)cc2oc2cccc(O)c12` [H], the IC50 was 7.6 µM.

Take `O=c1c2ccc(O)cc2oc2c(O)ccc(O)c12` [C]: the IC50 was 1.8 µM.

In the case of `O=c1c2ccccc2oc2cc(O)cc(O)c12` [G], the IC50 is 53 µM.

`O=c1c2c(O)cc(O)cc2oc2c(O)ccc(O)c12` [A]: the IC50 was 8 µM.

Staying with this experiment, now noted: statement in words.
On to `O=c1c2c(O)cc(O)cc2oc2c(O)ccc(O)c12` [Test sample A, 1,3,5,8-Tetrahydroxyxanthone], for which the “inhibition of binding of 5α-DHT with androgen receptor” value is “shows the inhibition of binding of 5α-DHT with androgen receptor”.

The test system of the next experiment is 5α-reductase.
Experiment: not given
The following applies: reported in Jap. Pat. No. 60-126218 (A); cited from earlier work.
As for `CC1(C)CC[C@]2(C(=O)O)CC[C@]3(C)C(=CC[C@@H]4[C@@]5(C)CC[C@H](O)C(C)(C)[C@@H]5CC[C@]43C)[C@@H]2C1` [oleanolic acid], the “inhibition of the activity of 5α-reductase” value was “showing the inhibition”.

The values above are taken from US4987150A, “Agent for inhibiting binding of 5-dihydro-testosterone with androgen receptor as well as process for obtaining same” (Kabushiki Kaisha Vitamin Kenkyusho, priority 1987, dated 1991).
